Numbers after ± are expanded uncertainties.
Key:
[1] = for viscosity: Liquid
[2] = xn = mol fraction of the nth substance listed; details: for viscosity: Liquid

OCCO [1,2-ethanediol]
[1]
Details | surface tension liquid-gas [mN/m] | viscosity [mPa·s]
308.15 K | 50.11 ± 1.1 | 9.212 ± 0.45
313.15 K | 48.73 ± 1.1 | 7.961 ± 0.4
318.15 K | 47.25 ± 1.1 | 6.293 ± 0.34
323.15 K | 46.41 ± 1.1 | 5.447 ± 0.3

OCCO [1,2-ethanediol] + O
[2]
Details | surface tension liquid-gas, 308.15 K [mN/m] | surface tension liquid-gas, 313.15 K [mN/m] | surface tension liquid-gas, 318.15 K [mN/m] | surface tension liquid-gas, 323.15 K [mN/m] | viscosity, 308.15 K [mPa·s] | viscosity, 313.15 K [mPa·s] | viscosity, 318.15 K [mPa·s] | viscosity, 323.15 K [mPa·s]
x1 = 0.0145 | 69.73 ± 1.4 | 66.55 ± 1.4 | 65.92 ± 1.4 | 63.24 ± 1.3 | 0.7543 ± 0.05 | 0.7037 ± 0.047 | 0.6336 ± 0.043 | 0.5878 ± 0.041
x1 = 0.0312 | 67.83 ± 1.4 | 65.58 ± 1.4 | 63.92 ± 1.3 | 60.58 ± 1.3 | 0.8381 ± 0.055 | 0.764 ± 0.051 | 0.6785 ± 0.046 | 0.6321 ± 0.043
x1 = 0.0484 | 66.13 ± 1.4 | 64.09 ± 1.3 | 62.24 ± 1.3 | 59.62 ± 1.3 | 0.9241 ± 0.06 | 0.8372 ± 0.055 | 0.7424 ± 0.05 | 0.6876 ± 0.046
x1 = 0.0686 | 64.57 ± 1.3 | 62.51 ± 1.3 | 60.57 ± 1.3 | 57.96 ± 1.2 | 1.021 ± 0.065 | 0.9256 ± 0.06 | 0.7995 ± 0.053 | 0.7433 ± 0.05
x1 = 0.0883 | 63.27 ± 1.3 | 61.32 ± 1.3 | 59.21 ± 1.3 | 56.77 ± 1.2 | 1.133 ± 0.071 | 1.017 ± 0.065 | 0.8755 ± 0.057 | 0.8133 ± 0.053
x1 = 0.1107 | 62.14 ± 1.3 | 60.32 ± 1.3 | 58.41 ± 1.3 | 55.75 ± 1.2 | 1.266 ± 0.079 | 1.127 ± 0.071 | 0.9589 ± 0.062 | 0.8853 ± 0.058
x1 = 0.1621 | 60.02 ± 1.3 | 58.1 ± 1.2 | 56.25 ± 1.2 | 54.15 ± 1.2 | 1.574 ± 0.096 | 1.405 ± 0.087 | 1.184 ± 0.074 | 1.082 ± 0.068
x1 = 0.2247 | 57.51 ± 1.2 | 55.92 ± 1.2 | 54.36 ± 1.2 | 52.15 ± 1.2 | 2.036 ± 0.12 | 1.772 ± 0.11 | 1.48 ± 0.091 | 1.339 ± 0.083
x1 = 0.3032 | 56.03 ± 1.2 | 54.45 ± 1.2 | 52.66 ± 1.2 | 50.52 ± 1.1 | 2.662 ± 0.16 | 2.298 ± 0.14 | 1.888 ± 0.11 | 1.679 ± 0.1
x1 = 0.4035 | 54.03 ± 1.2 | 52.41 ± 1.2 | 50.65 ± 1.1 | 49.12 ± 1.1 | 3.512 ± 0.2 | 3.017 ± 0.18 | 2.468 ± 0.15 | 2.179 ± 0.13
x1 = 0.5366 | 52.47 ± 1.2 | 50.7 ± 1.1 | 49.34 ± 1.1 | 47.88 ± 1.1 | 4.7 ± 0.27 | 4.054 ± 0.23 | 3.283 ± 0.19 | 2.874 ± 0.17
x1 = 1 | 50.11 ± 1.1 | 48.73 ± 1.1 | 47.25 ± 1.1 | 46.41 ± 1.1 | 9.212 ± 0.45 | 7.961 ± 0.4 | 6.293 ± 0.34 | 5.447 ± 0.3

O [water] + OCCO
[2], x2 = 0
Details | surface tension liquid-gas [mN/m] | viscosity [mPa·s]
308.15 K | 71.02 ± 1.4 | 0.721 ± 0.048
313.15 K | 69.69 ± 1.4 | 0.6532 ± 0.045
318.15 K | 67.68 ± 1.4 | 0.59 ± 0.041
323.15 K | 66.12 ± 1.4 | 0.55 ± 0.039
